Values of other authors, collected in patent US20100062042A1, “Methods, Systems and Devices for Administration of Chlorine Dioxide” (priority 2008, published 2010).

Key:
[1] = system: methicillin-resistant Staphylococcus aureus (MRSA); details: see U.S. Application No. 61/150,685
[2] = system: Pseudomonas aeruginosa (P. aeruginosa); details: see U.S. Application No. 61/150,685
[3] = particularly in chilled water

**Q.** What does the source list for [O][Cl+][O-] [chlorine dioxide, Chlorine dioxide]?
**A.** Effectiveness against MRSA [1]: effective; Effectiveness against P. aeruginosa [2]: effective; Solubility in water [3]: high solubility in water
